The values below come from patent publication US20260327214A1, “1,3,4-OXADIAZOLE DERIVATIVE COMPOUNDS AS HISTONE DEACETYLASE 6 INHIBITOR, AND USES THEREOF” (CHONG KUN DANG PHARMACEUTICAL CORP., priority 2022, published 2026).

What is called IC50 is the concentration at which inhibition is half-maximal.

For one assay, the target named is T1, human recombinant HDAC1 (Homo sapiens, UniProt Q13547).
T1 construct: purchased Enzo Life Science BML-SE456
Briefly: HDAC1 enzyme activity inhibition test (HDAC Fluorometric Drug Discovery Kit). In kind it is biochemical. To be noted: 30° C., 60 minutes, 10 μM substrate. In a few lines: (§1)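 IC50 derived from fluorescence (Ex 360, Em 460) following 30 min development with Developer II. Each reaction held 0.3 μg human recombinant HDAC1 or HDAC6, 10 μM Fluor de Lys SIRT1 substrate and 5-fold serially diluted compound, incubated 60 min at 30 °C.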

In the next assay the target is T2, human recombinant HDAC6 (Homo sapiens, UniProt Q9UBN7).
T2 construct: purchased Calbiochem 382180
T2 sequence (Q9UBN7 1-1215): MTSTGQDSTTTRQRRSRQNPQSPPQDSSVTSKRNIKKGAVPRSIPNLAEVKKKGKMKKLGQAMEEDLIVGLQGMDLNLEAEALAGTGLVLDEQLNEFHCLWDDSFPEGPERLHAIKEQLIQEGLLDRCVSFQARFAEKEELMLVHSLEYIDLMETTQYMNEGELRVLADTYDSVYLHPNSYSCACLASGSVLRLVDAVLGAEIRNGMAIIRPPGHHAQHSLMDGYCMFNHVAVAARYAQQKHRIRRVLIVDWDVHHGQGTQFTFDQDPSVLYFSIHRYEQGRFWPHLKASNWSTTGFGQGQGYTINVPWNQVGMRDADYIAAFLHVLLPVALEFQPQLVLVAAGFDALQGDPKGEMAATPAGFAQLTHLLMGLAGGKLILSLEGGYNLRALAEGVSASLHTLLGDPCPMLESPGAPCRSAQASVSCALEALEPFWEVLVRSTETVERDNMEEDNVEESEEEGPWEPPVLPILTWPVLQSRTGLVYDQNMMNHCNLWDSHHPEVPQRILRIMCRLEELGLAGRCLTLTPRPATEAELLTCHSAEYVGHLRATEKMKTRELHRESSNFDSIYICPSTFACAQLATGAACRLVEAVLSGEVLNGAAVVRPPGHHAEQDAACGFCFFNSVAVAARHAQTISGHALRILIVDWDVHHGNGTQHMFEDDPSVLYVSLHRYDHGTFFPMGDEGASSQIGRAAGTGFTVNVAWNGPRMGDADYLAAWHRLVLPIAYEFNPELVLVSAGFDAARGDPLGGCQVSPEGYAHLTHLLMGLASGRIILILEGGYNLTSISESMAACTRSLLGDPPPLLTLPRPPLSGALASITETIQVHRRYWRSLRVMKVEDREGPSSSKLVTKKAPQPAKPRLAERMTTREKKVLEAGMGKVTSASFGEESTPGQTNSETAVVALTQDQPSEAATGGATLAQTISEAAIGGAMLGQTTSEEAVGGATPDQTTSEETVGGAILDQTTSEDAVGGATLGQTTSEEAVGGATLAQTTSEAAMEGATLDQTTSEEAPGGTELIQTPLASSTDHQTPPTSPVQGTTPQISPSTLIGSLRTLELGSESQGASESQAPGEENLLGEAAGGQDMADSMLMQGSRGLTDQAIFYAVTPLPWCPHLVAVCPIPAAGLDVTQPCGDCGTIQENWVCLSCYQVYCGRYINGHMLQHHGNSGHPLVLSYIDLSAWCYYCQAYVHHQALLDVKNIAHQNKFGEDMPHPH
Briefly: HDAC6 enzyme activity inhibition test (HDAC Fluorometric Drug Discovery Kit). It is filed as biochemical. To be noted: for HDAC6 selectivity (fold): HDAC6 over HDAC1; for IC50: human recombinant HDAC6, same protocol as HDAC1. In a few lines:
as §1

T1 sequence (Q13547 whole entry): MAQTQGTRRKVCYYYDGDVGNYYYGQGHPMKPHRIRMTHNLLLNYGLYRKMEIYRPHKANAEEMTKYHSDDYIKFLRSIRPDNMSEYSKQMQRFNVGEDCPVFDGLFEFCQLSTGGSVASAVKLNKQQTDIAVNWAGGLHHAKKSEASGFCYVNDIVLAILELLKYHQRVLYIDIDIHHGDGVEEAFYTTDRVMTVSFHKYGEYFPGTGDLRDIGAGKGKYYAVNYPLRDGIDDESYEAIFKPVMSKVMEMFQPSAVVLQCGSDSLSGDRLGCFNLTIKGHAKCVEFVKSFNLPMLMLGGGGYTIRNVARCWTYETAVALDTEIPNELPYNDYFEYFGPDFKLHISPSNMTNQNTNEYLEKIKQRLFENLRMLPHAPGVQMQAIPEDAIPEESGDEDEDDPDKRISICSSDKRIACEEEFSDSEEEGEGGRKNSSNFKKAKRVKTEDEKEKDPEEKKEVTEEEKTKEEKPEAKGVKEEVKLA

In the case of `CN(C)Cc1ccc(-c2nn(Cc3ccc(-c4nnc(C(F)F)o4)cn3)c(=S)o2)cc1` [Compound 91, 3-[[5-[5-(difluoromethyl)-1,3,4-oxadiazol-2-yl]-2-pyridyl]methyl]-5-[4-[(dimethylamino)methyl]phenyl]-1,3,4-oxadiazol-2-thione], the IC50 at human recombinant HDAC1 was > 50 µM. For the same compound, at human recombinant HDAC6, the “HDAC6 selectivity (fold)” value came out at 1832 fold and the IC50 is 0.0273 µM.

For the compound `CNCc1ccc(-c2nn(Cc3ccc(-c4nnc(C(F)F)o4)cn3)c(=S)o2)cc1` [Compound 92, 3-[[5-[5-(difluoromethyl)-1,3,4-oxadiazol-2-yl]-2-pyridyl]methyl]-5-[4-(methylaminomethyl)phenyl]-1,3,4-oxadiazol-2-thione], the half-maximal inhibitory concentration (IC50) is > 50 µM on human recombinant HDAC1 and 0.0157 µM at human recombinant HDAC6. Further, the “HDAC6 selectivity (fold)” value on human recombinant HDAC6 was 3185 fold.

For `FC(F)c1nnc(-c2ccc(Cn3nc(-c4ccc(CN5CCCC5)cc4)oc3=S)nc2)o1` [Compound 93, 3-[[5-[5-(difluoromethyl)-1,3,4-oxadiazol-2-yl]-2-pyridyl]methyl]-5-[4-(pyrrolidin-1-ylmethyl)phenyl]-1,3,4-oxadiazol-2-thione], the half-maximal inhibitory concentration (IC50) at human recombinant HDAC1 is > 50 µM. In addition, at human recombinant HDAC6, the “HDAC6 selectivity (fold)” value came to 2890 fold and the IC50 turned out to be 0.0173 µM.

`FC(F)c1nnc(-c2ccc(Cn3nc(-c4ccc(CN5CCCCC5)cc4)oc3=S)nc2)o1` [Compound 94, 3-[[5-[5-(difluoromethyl)-1,3,4-oxadiazol-2-yl]-2-pyridyl]methyl]-5-[4-(1-piperidylmethyl)phenyl]-1,3,4-oxadiazol-2-thione]: at human recombinant HDAC1, the IC50 is > 50 µM. At human recombinant HDAC6, the “HDAC6 selectivity (fold)” value was 1672 fold and the IC50 was 0.0299 µM.

For `FC(F)c1nnc(-c2ccc(Cn3nc(-c4ccc(CN5CCOCC5)cc4)oc3=S)nc2)o1` [Compound 95, 3-[[5-[5-(difluoromethyl)-1,3,4-oxadiazol-2-yl]-2-pyridyl]methyl]-5-[4-(morpholinomethyl)phenyl]-1,3,4-oxadiazol-2-thione], on human recombinant HDAC1, the IC50 is > 50 µM. In addition, on human recombinant HDAC6, the “HDAC6 selectivity (fold)” value is 574 fold and the IC50 was found to be 0.0871 µM.

Turning to `CC1CCN(Cc2ccc(-c3nn(Cc4ccc(-c5nnc(C(F)F)o5)cn4)c(=S)o3)cc2)CC1` [Compound 96, 3-[[5-[5-(difluoromethyl)-1,3,4-oxadiazol-2-yl]-2-pyridyl]methyl]-5-[4-[(4-methyl-1-piperidyl)methyl]phenyl]-1,3,4-oxadiazol-2-thione], the half-inhibitory concentration (IC50) at human recombinant HDAC1 was > 50 µM; at human recombinant HDAC6 it was 0.0414 µM. In addition, the “HDAC6 selectivity (fold)” value at human recombinant HDAC6 is given as 1208 fold.

With `FC(F)c1nnc(-c2ccc(Cn3nc(-c4ccc(CN5CC[C@@H](F)C5)cc4)oc3=S)nc2)o1` [Compound 97, 3-[[5-[5-(difluoromethyl)-1,3,4-oxadiazol-2-yl]-2-pyridyl]methyl]-5-[4-[[(3R)-3-fluoropyrrolidin-1-yl]methyl]phenyl]-1,3,4-oxadiazol-2-thione], the IC50 was > 50 µM at human recombinant HDAC1 and 0.0581 µM at human recombinant HDAC6. Besides, the “HDAC6 selectivity (fold)” value on human recombinant HDAC6 is 862 fold.

In the case of `FC(F)c1nnc(-c2ccc(Cn3nc(-c4ccc(CN5CC[C@H](F)C5)cc4)oc3=S)nc2)o1` [Compound 98, 3-[[5-[5-(difluoromethyl)-1,3,4-oxadiazol-2-yl]-2-pyridyl]methyl]-5-[4-[[(3S)-3-fluoropyrrolidin-1-yl]methyl]phenyl]-1,3,4-oxadiazol-2-thione], the IC50 at human recombinant HDAC1 was > 50 µM. In addition, on human recombinant HDAC6, the “HDAC6 selectivity (fold)” value is given as 552 fold and the IC50 stood at 0.0906 µM.

For `FC(F)c1nnc(-c2ccc(Cn3nc(-c4cccc(CN5CCOCC5)c4)oc3=S)nc2)o1` [Compound 99, 3-[[5-[5-(difluoromethyl)-1,3,4-oxadiazol-2-yl]-2-pyridyl]methyl]-5-[3-(morpholinomethyl)phenyl]-1,3,4-oxadiazol-2-thione], on human recombinant HDAC1, the IC50 is > 50 µM. At human recombinant HDAC6, the “HDAC6 selectivity (fold)” value was determined as 511 fold and the 50% inhibitory concentration (IC50) is 0.0978 µM.

On to `CCN1CCN(c2cccc(-c3nn(Cc4ccc(-c5nnc(C(F)F)o5)cn4)c(=S)o3)n2)CC1` [Compound 100, 3-[[5-[5-(difluoromethyl)-1,3,4-oxadiazol-2-yl]-2-pyridyl]methyl]-5-[6-(4-ethylpiperazin-1-yl)-2-pyridyl]-1,3,4-oxadiazol-2-thione], for which the IC50 on human recombinant HDAC1 was > 50 µM. In addition, at human recombinant HDAC6, the “HDAC6 selectivity (fold)” value amounted to 2049 fold and the half-maximal inhibitory concentration (IC50) came to 0.0244 µM.

Consider `CC(C)N1CCN(c2cccc(-c3nn(Cc4ccc(-c5nnc(C(F)F)o5)cn4)c(=S)o3)n2)CC1` [Compound 101, 3-[[5-[5-(difluoromethyl)-1,3,4-oxadiazol-2-yl]-2-pyridyl]methyl]-5-[6-(4-isopropylpiperazin-1-yl)-2-pyridyl]-1,3,4-oxadiazol-2-thione], for which the IC50 on human recombinant HDAC1 is > 50 µM; at human recombinant HDAC6, 0.0197 µM. In addition, on human recombinant HDAC6, the “HDAC6 selectivity (fold)” value is recorded as 2538 fold.

Take `FC(F)c1nnc(-c2ccc(Cn3nc(-c4cccc(N5CCN(C6CCCC6)CC5)n4)oc3=S)nc2)o1` [Compound 102, 5-[6-(4-cyclopentylpiperazin-1-yl)-2-pyridyl]-3-[[5-[5-(difluoromethyl)-1,3,4-oxadiazol-2-yl]-2-pyridyl]methyl]-1,3,4-oxadiazol-2-thione]: the half-maximal inhibitory concentration (IC50) on human recombinant HDAC1 is > 50 µM; on human recombinant HDAC6, 0.0421 µM. Further, at human recombinant HDAC6, the “HDAC6 selectivity (fold)” value turned out to be 1188 fold.

In the case of `CCN1CCN(c2cccc(-c3nn(Cc4ncc(-c5nnc(C(F)F)o5)cc4F)c(=S)o3)n2)CC1` [Compound 103, 3-[[5-[5-(difluoromethyl)-1,3,4-oxadiazol-2-yl]-3-fluoro-2-pyridyl]methyl]-5-[6-(4-ethylpiperazin-1-yl)-2-pyridyl]-1,3,4-oxadiazol-2-thione], at human recombinant HDAC1, the half-inhibitory concentration (IC50) was > 50 µM. In addition, on human recombinant HDAC6, the “HDAC6 selectivity (fold)” value was determined as 1302 fold and the IC50 was determined as 0.0384 µM.

In the case of `CC(C)N1CCN(c2cccc(-c3nn(Cc4ncc(-c5nnc(C(F)F)o5)cc4F)c(=S)o3)n2)CC1` [Compound 104, 3-[[5-[5-(difluoromethyl)-1,3,4-oxadiazol-2-yl]-3-fluoro-2-pyridyl]methyl]-5-[6-(4-isopropylpiperazin-1-yl)-2-pyridyl]-1,3,4-oxadiazol-2-thione], the IC50 at human recombinant HDAC1 was > 50 µM; at human recombinant HDAC6, 0.043 µM. Moreover, on human recombinant HDAC6, the “HDAC6 selectivity (fold)” value stood at 1163 fold.

As to `CC(C)N1CCN(c2cc(-c3nn(Cc4ccc(-c5nnc(C(F)F)o5)cn4)c(=S)o3)ccn2)CC1` [Compound 105, 3-[[5-[5-(difluoromethyl)-1,3,4-oxadiazol-2-yl]-2-pyridyl]methyl]-5-[2-(4-isopropylpiperazin-1-yl)-4-pyridyl]-1,3,4-oxadiazol-2-thione], the results for the IC50 on human recombinant HDAC1 and at human recombinant HDAC6 were > 50 µM and 0.0681 µM, respectively. The “HDAC6 selectivity (fold)” value on human recombinant HDAC6 is 734 fold.

For the compound `FC(F)c1nnc(-c2ccc(Cn3nc(-c4ccnc(N5CCN(C6CCCC6)CC5)c4)oc3=S)nc2)o1` [Compound 106, 5-[2-(4-cyclopentylpiperazin-1-yl)-4-pyridyl]-3-[[5-[5-(difluoromethyl)-1,3,4-oxadiazol-2-yl]-2-pyridyl]methyl]-1,3,4-oxadiazol-2-thione], the IC50 on human recombinant HDAC1 is > 50 µM; at human recombinant HDAC6 it was 0.0782 µM. At human recombinant HDAC6, the “HDAC6 selectivity (fold)” value is recorded as 639 fold.

On to `CN(C)Cc1ccc(-c2nn(Cc3ncc(-c4nnc(C(F)F)o4)cc3F)c(=S)o2)cc1` [Compound 107, 3-[[5-[5-(difluoromethyl)-1,3,4-oxadiazol-2-yl]-3-fluoro-2-pyridyl]methyl]-5-[4-[(dimethylamino)methyl]phenyl]-1,3,4-oxadiazol-2-thione], for which the IC50 on human recombinant HDAC1 is > 50 µM. Also, at human recombinant HDAC6, the “HDAC6 selectivity (fold)” value is on record as 1163 fold and the IC50 was found to be 0.043 µM.

Regarding `CNCc1ccc(-c2nn(Cc3ncc(-c4nnc(C(F)F)o4)cc3F)c(=S)o2)cc1` [Compound 108, 3-[[5-[5-(difluoromethyl)-1,3,4-oxadiazol-2-yl]-3-fluoro-2-pyridyl]methyl]-5-[4-(methylaminomethyl)phenyl]-1,3,4-oxadiazol-2-thione], the half-inhibitory concentration (IC50) on human recombinant HDAC1 is > 50 µM; at human recombinant HDAC6 it was 0.0339 µM. On human recombinant HDAC6, the “HDAC6 selectivity (fold)” value was determined as 1475 fold.
